# Target: T1, vanilloid receptor 1 (VR1/TRPV1 receptor) (Homo sapiens, UniProt Q8NER1)
# T1 construct: expressed in transfected cells; host or cells: CHO K1
# Assay: Functional testing on the vanilloid receptor 1 (VR1/TRPV1): FLIPR Ca2+ influx assay, displacement of capsaicin
# Type: cell-based, human being
# Design: key to mode of action at VR1/TRPV1 (AG, pAG, NE), Cap: AG=agonist; NE=no effect; pAG=partial agonist
# Details: 5 μM compound; capsaicin (Cap); human being; read-out: inhibition (as a percentage) at the concentration after @, Cap
# Procedure, shortened: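 Fluo-4 FLIPR Ca2+ influx in CHO K1 cells transfected with human VR1, measuring displacement of 100 nM capsaicin; rat VR1 agonism/antagonism also assessed in rat dorsal root ganglion neurons cultured 2–3 days at 37° C with 25 ng/mL NGF, then loaded with 2 μM Fluo-4.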
# T1 sequence (Q8NER1 whole entry): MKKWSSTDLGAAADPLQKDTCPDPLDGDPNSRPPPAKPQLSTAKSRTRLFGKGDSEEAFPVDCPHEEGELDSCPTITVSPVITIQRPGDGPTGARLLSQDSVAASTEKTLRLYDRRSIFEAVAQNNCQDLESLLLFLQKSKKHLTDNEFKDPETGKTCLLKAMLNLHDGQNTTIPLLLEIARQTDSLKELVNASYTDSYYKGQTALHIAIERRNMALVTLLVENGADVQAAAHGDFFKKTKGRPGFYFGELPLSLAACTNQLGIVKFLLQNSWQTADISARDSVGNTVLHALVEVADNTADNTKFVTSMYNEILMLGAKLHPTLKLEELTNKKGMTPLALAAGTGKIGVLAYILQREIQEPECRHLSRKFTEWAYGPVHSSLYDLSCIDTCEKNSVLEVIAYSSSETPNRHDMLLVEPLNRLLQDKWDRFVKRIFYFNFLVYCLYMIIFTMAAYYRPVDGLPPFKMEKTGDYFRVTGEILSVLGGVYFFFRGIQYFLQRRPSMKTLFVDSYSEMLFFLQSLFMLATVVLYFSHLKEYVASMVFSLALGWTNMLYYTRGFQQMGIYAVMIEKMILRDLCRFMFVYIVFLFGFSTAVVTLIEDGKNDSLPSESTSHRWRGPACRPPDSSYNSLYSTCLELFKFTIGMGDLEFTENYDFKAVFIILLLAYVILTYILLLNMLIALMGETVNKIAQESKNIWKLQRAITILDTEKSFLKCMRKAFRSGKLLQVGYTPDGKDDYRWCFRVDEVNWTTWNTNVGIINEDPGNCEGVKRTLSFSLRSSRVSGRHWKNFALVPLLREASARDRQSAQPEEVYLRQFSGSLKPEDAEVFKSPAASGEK
row,SMILES,inhibition at 5 µM
1,"COc1ncc(NC(=O)NCc2cc(C(F)(F)F)nn2-c2cccc(Cl)c2)cn1 [Example 130, 1-((1-(3-chlorophenyl)-3-(trifluoromethyl)-1H-pyrazol-5-yl)methyl)-3-(2-methoxypyrimidin-5-yl)urea]",47%
2,"COCCOc1ccc(NC(=O)NCc2cc(C(C)(C)C)nn2-c2cccc(Cl)c2)cn1 [Example 131, 1-((3-tert-butyl-1-(3-chlorophenyl)-1H-pyrazol-5-yl)methyl)-3-(6-(2-methoxyethoxy)pyridin-3-yl)urea]",83%
3,"COCCOc1ccc(NC(=O)NCc2cc(C(F)(F)F)nn2-c2cccc(Cl)c2)cn1 [Example 132, 1-((1-(3-chlorophenyl)-3-(trifluoromethyl)-1H-pyrazol-5-yl)methyl)-3-(6-(2-methoxyethoxy)pyridin-3-yl)urea]",45%
4,"CN(CCO)Cc1ccc(NC(=O)NCc2cc(C(F)(F)F)nn2-c2cccc(Cl)c2)cn1 [Example 135, 1-((1-(3-chlorophenyl)-3-(trifluoromethyl)-1H-pyrazol-5-yl)methyl)-3-(6-(((2-hydroxyethyl)(methyl)amino)methyl)pyridin-3-yl)urea]",22%
5,"Cc1nc(CO)ccc1NC(=O)NCc1cc(C(F)(F)F)nn1-c1cccc(Cl)c1 [Example 141, 1-((1-(3-chlorophenyl)-3-(trifluoromethyl)-1H-pyrazol-5-yl)methyl)-3-(6-(hydroxymethyl)-2-methylpyridin-3-yl)urea]",51%

# Same assay, conditions: capsaicin (Cap) as stimulus; Ki from IC50 by Cheng-Prusoff; read-out: (f) Ki (human being) [nM] Cap
row,SMILES,Ki
1,"CC(C)c1cccc(-n2nc(C(F)(F)F)cc2CNC(=O)Nc2ccc(N3CC(O)C3)nc2)c1 [Example 115, 1-(6-(3-hydroxyazetidin-1-yl)pyridin-3-yl)-3-((1-(3-isopropylphenyl)-3-(trifluoromethyl)-1H-pyrazol-5-yl)methyl)urea]",2 nM
2,"CC(C)(C)c1cc(CNC(=O)Nc2ccc(N3CC(O)C3)nc2)n(-c2cccc(Cl)c2)n1 [Example 117, 1-((3-tert-butyl-1-(3-chlorophenyl)-1H-pyrazol-5-yl)methyl)-3-(6-(3-hydroxyazetidin-1-yl)pyridin-3-yl)urea]",18 nM
3,"CC(C)(C)c1cc(CNC(=O)Nc2ccc(N3CCCC3)nc2)n(-c2cccc(Cl)c2)n1 [Example 120, 1-((3-tert-butyl-1-(3-chlorophenyl)-1H-pyrazol-5-yl)methyl)-3-(6-(pyrrolidin-1-yl)pyridin-3-yl)urea]",23 nM
4,"O=C(NCc1cc(C(F)(F)F)nn1-c1cccc(Cl)c1)Nc1ccc(N2CCCC2)nc1 [Example 121, 1-((1-(3-chlorophenyl)-3-(trifluoromethyl)-1H-pyrazol-5-yl)methyl)-3-(6-(pyrrolidin-1-yl)pyridin-3-yl)urea]",47 nM
5,"COc1cc(NC(=O)NCc2cc(C(F)(F)F)nn2-c2cccc(Cl)c2)cnc1N1CCCC1 [Example 123, 1-((1-(3-chlorophenyl)-3-(trifluoromethyl)-1H-pyrazol-5-yl)methyl)-3-(5-methoxy-6-(pyrrolidin-1-yl)pyridin-3-yl)urea]",83 nM
6,"O=C(NCc1cc(C(F)(F)F)nn1-c1cccc(Cl)c1)Nc1ccc(N2CC[C@@H](O)C2)nc1 [Example 124, (R)-1-((1-(3-chlorophenyl)-3-(trifluoromethyl)-1H-pyrazol-5-yl)methyl)-3-(6-(3-hydroxypyrrolidin-1-yl)pyridin-3-yl)urea]",64 nM
7,"O=C(NCc1cc(C(F)(F)F)nn1-c1cccc(Cl)c1)Nc1ccc(N2CC[C@H](O)C2)nc1 [Example 125, (S)-1-((1-(3-chlorophenyl)-3-(trifluoromethyl)-1H-pyrazol-5-yl)methyl)-3-(6-(3-hydroxypyrrolidin-1-yl)pyridin-3-yl)urea]",64 nM
8,"CC(C)(C)c1cc(CNC(=O)Nc2ccc(N3CC[C@@H](O)C3)nc2)n(-c2cccc(Cl)c2)n1 [Example 126, (R)-1-((3-tert-butyl-1-(3-chlorophenyl)-1H-pyrazol-5-yl)methyl)-3-(6-(3-hydroxypyrrolidin-1-yl)pyridin-3-yl)urea]",61 nM
9,"CC(C)(C)c1cc(CNC(=O)Nc2ccc(N3CC[C@H](O)C3)nc2)n(-c2cccc(Cl)c2)n1 [Example 127, (S)-1-((3-tert-butyl-1-(3-chlorophenyl)-1H-pyrazol-5-yl)methyl)-3-(6-(3-hydroxypyrrolidin-1-yl)pyridin-3-yl)urea]",61 nM
10,"COc1ccc(C(C)C(=O)NCc2cc(C(F)(F)F)nn2-c2cccc(Cl)c2)cn1 (stereo not drawn) [Example 129, N-((1-(3-chlorophenyl)-3-(trifluoromethyl)-1H-pyrazol-5-yl)methyl)-2-(6-methoxypyridin-3-yl)propanamide]",13 nM
11,"O=C(NCc1cc(C(F)(F)F)nn1-c1cccc(Cl)c1)Nc1ccc(OCCO)nc1 [Example 133, 1-((1-(3-chlorophenyl)-3-(trifluoromethyl)-1H-pyrazol-5-yl)methyl)-3-(6-(2-hydroxyethoxy)pyridin-3-yl)urea]",88 nM
12,"Cc1ccc(NC(=O)NCc2cc(C(F)(F)F)nn2-c2cccc(Cl)c2)cn1 [Example 136, 1-((1-(3-chlorophenyl)-3-(trifluoromethyl)-1H-pyrazol-5-yl)methyl)-3-(6-methylpyridin-3-yl)urea]",47 nM
13,"Cc1cncc(NC(=O)NCc2cc(C(F)(F)F)nn2-c2cccc(Cl)c2)c1 [Example 137, 1-((1-(3-chlorophenyl)-3-(trifluoromethyl)-1H-pyrazol-5-yl)methyl)-3-(5-methylpyridin-3-yl)urea]",55 nM
14,"Cc1cc(C)c(NC(=O)NCc2cc(C(F)(F)F)nn2-c2cccc(Cl)c2)cn1 [Example 138, 1-((1-(3-chlorophenyl)-3-(trifluoromethyl)-1H-pyrazol-5-yl)methyl)-3-(4,6-dimethylpyridin-3-yl)urea]",90 nM
15,"CC(C)(C)c1cc(CNC(=O)Nc2ccc(CO)cn2)n(-c2cccc(Cl)c2)n1 [Example 139, 1-((3-tert-butyl-1-(3-chlorophenyl)-1H-pyrazol-5-yl)methyl)-3-(5-(hydroxymethyl)pyridin-2-yl)urea]",109 nM
16,"CC(C(=O)NCc1cc(C(F)(F)F)nn1-c1cccc(Cl)c1)c1cnc(CO)c(F)c1 (stereo not drawn) [Example 142, N-((1-(3-chlorophenyl)-3-(trifluoromethyl)-1H-pyrazol-5-yl)methyl)-2-(5-fluoro-6-(hydroxymethyl)pyridin-3-yl)propanamide]",1.5 nM
17,"Cc1nc(CCO)ccc1NC(=O)NCc1cc(C(F)(F)F)nn1-c1cccc(Cl)c1 [Example 143, 1-((1-(3-chlorophenyl)-3-(trifluoromethyl)-1H-pyrazol-5-yl)methyl)-3-(6-(2-hydroxyethyl)-2-methylpyridin-3-yl)urea]",84 nM
18,"CC(C)(C)c1cc(CNC(=O)Nc2ccc(C(O)CO)nc2)n(-c2cccc(Cl)c2)n1 (stereo not drawn) [Example 144, 1-((3-tert-butyl-1-(3-chlorophenyl)-1H-pyrazol-5-yl)methyl)-3-(6-(1,2-dihydroxyethyl)pyridin-3-yl)urea]",24 nM
19,"O=C(NCc1cc(C(F)(F)F)nn1-c1cccc(Cl)c1)Nc1ccc(C(O)CO)nc1 (stereo not drawn) [Example 145, 1-((1-(3-chlorophenyl)-3-(trifluoromethyl)-1H-pyrazol-5-yl)methyl)-3-(6-(1,2-dihydroxyethyl)pyridin-3-yl)urea]",121 nM
20,"CC(C(=O)NCc1cc(C(F)(F)F)nn1-c1cccc(Cl)c1)c1ccc(NCCO)nc1 (stereo not drawn) [Example 146, N-((1-(3-chlorophenyl)-3-(trifluoromethyl)-1H-pyrazol-5-yl)methyl)-2-(6-(2-hydroxyethylamino)pyridin-3-yl)propanamide]",0.6 nM
21,"COCCNc1ccc(C(C)C(=O)NCc2cc(C(F)(F)F)nn2-c2cccc(Cl)c2)cn1 (stereo not drawn) [Example 147, N-((1-(3-chlorophenyl)-3-(trifluoromethyl)-1H-pyrazol-5-yl)methyl)-2-(6-(2-methoxyethylamino)pyridin-3-yl)propanamide]",18 nM
22,"CC(C(=O)NCc1cc(C(F)(F)F)nn1-c1cccc(Cl)c1)c1ccc(N(C)CCO)nc1 (stereo not drawn) [Example 148, N-((1-(3-chlorophenyl)-3-(trifluoromethyl)-1H-pyrazol-5-yl)methyl)-2-(6-((2-hydroxyethyl)(methyl)amino)pyridin-3-yl)propanamide]",15 nM
23,"CC(C(=O)NCc1cc(C(F)(F)F)nn1-c1ccc(F)c(Cl)c1)c1ccc(CCO)nc1 (stereo not drawn) [Example 149, N-((1-(3-chloro-4-fluorophenyl)-3-(trifluoromethyl)-1H-pyrazol-5-yl)methyl)-2-(6-(2-hydroxyethyl)pyridin-3-yl)propanamide]",28 nM
24,"CC(C(=O)NCc1cc(C2CC2)nn1-c1cccc(Cl)c1)c1ccc(CCO)nc1 (stereo not drawn) [Example 150, N-((1-(3-chlorophenyl)-3-cyclopropyl-1H-pyrazol-5-yl)methyl)-2-(6-(2-hydroxyethyl)pyridin-3-yl)propanamide]",59 nM
25,"Cc1cccc(-n2nc(C(F)(F)F)cc2CNC(=O)C(C)c2ccc(CCO)nc2)c1 (stereo not drawn) [Example 151, 2-(6-(2-hydroxyethyl)pyridin-3-yl)-N-((1-m-tolyl-3-(trifluoromethyl)-1H-pyrazol-5-yl)methyl)propanamide]",49 nM
26,"CC(C)(C)c1cc(CNC(=O)Nc2ccc(CCO)nc2)n(-c2cccc(F)c2)n1 [Example 152, 1-((3-tert-butyl-1-(3-fluorophenyl)-1H-pyrazol-5-yl)methyl)-3-(6-(2-hydroxyethyl)pyridin-3-yl)urea]",85 nM

# Same assay, conditions: capsaicin (Cap); human being
row,SMILES,"mode of action at VR1/TRPV1 (AG, pAG, NE), Cap"
1,"COCCOc1ccc(NC(=O)NCc2cc(C(C)(C)C)nn2-c2cccc(Cl)c2)cn1 [Example 131, 1-((3-tert-butyl-1-(3-chlorophenyl)-1H-pyrazol-5-yl)methyl)-3-(6-(2-methoxyethoxy)pyridin-3-yl)urea]",AG
2,"O=C(NCc1cc(C(F)(F)F)nn1-c1cccc(Cl)c1)Nc1ccc(CNCCO)nc1 [Example 134, 1-((1-(3-chlorophenyl)-3-(trifluoromethyl)-1H-pyrazol-5-yl)methyl)-3-(6-((2-hydroxyethylamino)methyl)pyridin-3-yl)urea]",NE

# Source: patent publication US20130029962A1, “Substituted Heteroaromatic Pyrazole-Containing Carboxamide and Urea Compounds as Vanilloid Receptor Ligands” (Gruenenthal GmbH, priority 2011, published 2013)
